According to patent US20070043105A1, “Preventive for cerebal stroke recurrence” (ASTELLAS PHARMA INC., priority 2003, published 2007):

Assays:
SHR-SP rats = conditions: administration before attack; cited from earlier work
[1] = tested on: stroke-prone spontaneously hypertensive rats (SHR-SP); test: Cerebral stroke recurrence-accompanied neurologic symptom score in SHR-SP rats; format: in vivo, rat
Text: Regarding the neurologic symptom, both the fore-legs and both the hind legs of a test case are checked for the paralysis and the activity depression as the items of the neurologic symptoms thereof, and they are scored depending on the degree of the symptoms. Concretely, according to a reference (European Journal of Pharmacology, 192, 165-167, 1991), they are normal state (score 0), light symptom (score 1), middle symptom (score 2) and heavy symptom (score 3); and the final data of an individual are the total of the scores of these items. The maximum score is 15.
(§1) The dose was 3 and 30 mg/kg, and it was repeatedly orally administered once a day.
(§2) SHR-SP male rats (9-week age when bought, by Nippon SLC) were bred under a constant-temperature and constant-humidity condition. The feed was solid SP feed for breeding SHR-SP rats; and every rat was kept to freely drink tap water as automatically supplied thereto. The body weight of each rat was measured everyday, and the rats were checked for an cerebral stroke attack (Stroke, Vol. 20(9), pp. 1212-1218, 1989; Journal of Pharmacology & Experimental Therapeutics, Vol. 291(2), pp. 569-575, 1999). The cerebral stroke attack in the rats of this line is accompanied by neurologic symptoms such as paralysis or hemiplegia (European Journal of Pharmacology, Vol. 192 (1), pp. 165-167, 1991), and abnormal body weight change such as rapid body weight reduction. The abnormal body weight change may be considered to be caused by the deterred drinking and eating owing to the cerebral stroke attack (Brain Research, Vol. 452 (1-2), pp. 323-328, 1988; Stroke, Vol. 20(8), pp. 1089-1091, 1989; European Journal of Pharmacology, Vol. 192 (1), pp. 165-167, 1991).
The rats were checked for their neurologic symptoms on the day the first stroke occurred and 7 and 14 days later by the modified method of Yamamoto (Brain Research, Vol. 452(1-2), pp. 323-328, 1988; Stroke, Vol. 20(8), pp. 1089-1091, 1989; European Journal of Pharmacology, Vol. 192(1), pp. 165-167, 1991). Both the fore-legs and both the hind legs of the rats were checked for the paralysis and the activity depression as the items of the neurologic symptoms thereof. […] The final data of the individual rat are the total of the scores of these items. The maximum score is 15.
(§3) A Steel test was used to the neurologic symptom and recurrence scores, and a Log-rank test was applied to the survival rate.

eNOS = conditions: cited from earlier work
[2] = tested on: stroke-prone spontaneously hypertensive rats (SHR-SP); test: Cerebral stroke recurrence score (daily body weight change) after primary stroke attack in SHR-SP rats; format: in vivo, rat; conditions: vs control
Description: as §1, §2, §3

[3] = tested on: stroke-prone spontaneously hypertensive rats (SHR-SP); test: Survival rate after onset of the stroke in SHR-SP rats; format: in vivo, rat; conditions: for survival rate: control 3/28 (10.7%)
Description: as §1, §2
Vehicle or atorvastatin was orally administered everyday, once a day from day of the first stroke to death.
as §3

[4] = tested on: stroke-prone spontaneously hypertensive rats (SHR-SP); test: Blood pressure, heart beat and total cholesterol level in SHR-SP rats after primary stroke attack; format: in vivo, rat; conditions: administration groups (3 and 30 mg/kg/day), within 2 weeks after the primary cerebral stroke attack
[5] = tested on: hypertension cases or CHD-having cases; conditions: cited from earlier work
[6] = 3 mg/kg/day p.o., day 14 after the primary cerebral stroke attack, Steel test
[7] = 30 mg/kg/day p.o., day 7 after the primary cerebral stroke attack
[8] = 30 mg/kg/day p.o., day 14 after the primary cerebral stroke attack, Steel test

SMILES	prevention of cerebral stroke attack (SHR-SP rats)	survival rate (SHR-SP rats)	neurologic symptoms (score) ([1]; 3 mg/kg/day p.o., day 7 after the primary cerebral stroke attack)	neurologic symptoms (score) [1, 6]	level of neurologic symptoms reached ([1]; 30 mg/kg administration group, day 14 after the primary cerebral stroke attack)	neurologic symptoms (score) [1, 7]	neurologic symptoms (score) [1, 8]	eNOS activity (eNOS)	cerebral stroke recurrence symptoms (recurrence score) [2, 6]	cerebral stroke recurrence symptoms (recurrence score) [2, 7]	cerebral stroke recurrence symptoms (recurrence score) [2, 8]	survival rate ([3]; 3 mg/kg/day p.o., day 35 after the primary cerebral stroke attack (6/29))	improvement of survival rate vs control, Log-rank test ([3]; 30 mg/kg/day p.o.)	survival rate ([3]; 30 mg/kg/day p.o., day 35 after the primary cerebral stroke attack (8/24))	diastolic pressure vs control group [4]	heart beat vs control group [4]	mean blood pressure vs control group [4]	systolic pressure vs control group [4]	total cholesterol level vs control group [4]	primary preventive effect for cerebral stroke [5]
COCc1c(C(C)C)nc(C(C)C)c(/C=C/[C@@H](O)C[C@@H](O)CC(=O)O)c1-c1ccc(F)cc1 [serivastatin]	effective for prevention of cerebral stroke attack	effective for increasing a survival rate																		
CC(C)c1c(C(=O)Nc2ccccc2)c(-c2ccccc2)c(-c2ccc(F)cc2)n1CC[C@@H](O)C[C@@H](O)CC(=O)O [atorvastatin, (-)-(3R,5R)-7-[2-(4-fluorophenyl)-5-isopropyl-3-phenyl-4-phenylcarbamoyl-1H-pyrrol-1-yl]-3,5-dihydroxyheptanoic acid]			improved	significant improvement	restored nearly to the ordinary level	improved	significant improvement	increases eNOS activity	significant improvement	improved symptoms	significant improvement	20.7%	significant difference	33.3%	no significant difference	no significant difference	no significant difference	no significant difference	no significant difference	effective for preventing a primary cerebral stroke
